# Test results reported in US12459951B2, “Compounds that interact with RAS superfamily proteins for treatment of cancers, inflammatory diseases, rasopathies, and fibrotic disease” (SHY Therapeutics, LLC, priority 2022, dated 2025).
# Legend:
# IL6 = experiment: IL-6 Quantification Assay (ELISA), LPS-stimulated RAW 264.7; assay type: cell-based; set-up: inhibition: dose or concentration left out as unconfirmed; details: Mus musculus, RAW264.7; read-out: IL-6: % inh.
# KRas G12D mutant = experiment: Ras GTP Binding Domain Inhibition Assay (Ras Superfamily Assay); details: for KRas G12D mutant + SOS: % inh.: with SOS; for KRas G12D mutant: % inh.: without SOS
# Outline: (§1)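 His-tagged GTPases immobilised on nickel-coated plates, pre-incubated with compound (20 μM single point, or serial dilution for IC50) 3 h at room temperature, with or without 10-30 μg/mL Sos (residues 556-1049) in the final hour. Bound Cy3- or Cy5-GTP (100 nM, 45 min) measured by fluorescence after washing.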
# KRas wild type = experiment: as above; details: for KRas wild type + SOS: % inh.: with SOS; for KRas wild type: % inh.: without SOS
# Outline: as §1
# Rac-1 = target: T1, Rac-1 (Homo sapiens, UniProt P63000); experiment: as above; details: read-out: Rac-1: % inh.
# T1 construct: made in house
# Outline: as §1
Compound,inhibition (IL6) [%],KRas G12D mutant + SOS: % inh. (KRas G12D mutant; 20 μM compound),KRas G12D mutant: % inh. (KRas G12D mutant; 20 μM compound),KRas wild type + SOS: % inh. (KRas wild type; 20 μM compound),KRas wild type: % inh. (KRas wild type; 20 μM compound),inhibition at 20 µM (Rac-1) [%],KRas G12D mutant + SOS: % inh. (KRas G12D mutant; at 20 μM),KRas G12D mutant: % inh. (KRas G12D mutant; at 20 μM),KRas wild type + SOS: % inh. (KRas wild type; at 20 μM),KRas wild type: % inh. (KRas wild type; at 20 μM)
"COc1ccnc(Nc2nc(-c3nccn3C)nn3cc(-c4ccn(C)n4)c(C(=O)N4CCOCC4)c23)c1 [Compound 179, (4-((4-Methoxypyridin-2-yl)amino)-2-(1-methyl-1H-imidazol-2-yl)-6-(1-methyl-1H-pyrazol-3-yl)pyrrolo[2,1-f][1,2,4]triazin-5-yl)(morpho-lino)methanone]",50 to 74,D (D = 76-100% inhibition),D (D = 76-100% inhibition),D (D = 76-100% inhibition),D (D = 76-100% inhibition),76 to 100,–,–,–,–
"COc1cc(Nc2nc(-c3nccn3C)nn3cc(-c4cccnc4)c(-c4cccnc4)c23)ncn1 [Compound 170, N-(6-Methoxypyrimidin-4-yl)-2-(1-methyl-1H-imidazol-2-yl)-5,6-di(pyridin-3-yl)pyrrolo[2,1-f][1,2,4]triazin-4-amine]",50 to 74,D (D = 76-100% inhibition),D (D = 76-100% inhibition),D (D = 76-100% inhibition),D (D = 76-100% inhibition),76 to 100,–,–,–,–
"COCCNC(=O)c1c(-c2ccn(C)n2)cn2nc(-c3nccn3C)nc(Nc3cc(OC)ccn3)c12 [Compound 176, N-(2-Methoxyethyl)-4-((4-methoxypyridin-2-yl)amino)-2-(1-methyl-1H-imidazol-2-yl)-6-(1-methyl-1H-pyrazol-3-yl)pyrrolo[2,1-f][1,2,4]triazine-5-carboxamide]",75 to 100,D (D = 76-100% inhibition),D (D = 76-100% inhibition),D (D = 76-100% inhibition),D (D = 76-100% inhibition),76 to 100,–,–,–,–
"CO[C@H]1CC[C@H](Nc2nc(-c3nccn3C)nn3cc(-c4ccn(C)n4)c(C(=O)NCCN4CCOCC4)c23)C1 (racemic) [Compound 185, rac 4-(((1S,3S)-3-methoxycyclo-pentyl)amino)-2-(1-methyl-1H-imidazol-2-yl)-6-(1-methyl-1H-pyrazol-3-yl)-N-(2-morpholino-ethyl)pyrrolo[2,1-f][1,2,4]triazine-5-carboxamide]",25 to 49,0 (0 = 0% inhibition),A (A = 1-25% inhibition),0 (0 = 0% inhibition),A (A = 1-25% inhibition),0,–,–,–,–
"CO[C@H]1CC[C@H](Nc2nc(-c3nccn3C)nn3cc(-c4ccn(C)n4)c(C(=O)NCC(F)(F)F)c23)C1 (racemic) [Compound 181, 4-(((1S,3S)-3-Methoxycyclopentyl)amino)-2-(1-methyl-1H-imidazol-2-yl)-6-(1-methyl-1H-pyrazol-3-yl)-N-(2,2,2-trifluoroethyl)pyrrolo[2,1-f][1,2,4]triazine-5-carboxamide]",50 to 74,0 (0 = 0% inhibition),A (A = 1-25% inhibition),A (A = 1-25% inhibition),A (A = 1-25% inhibition),1 to 25,–,–,–,–
"COc1cc(Nc2nc(-c3nccn3C)nn3cc(-c4ccn(C)n4)c(C)c23)ncc1C [Compound 235, N-(4-Methoxy-5-methylpyridin-2-yl)-5-methyl-2-(1-methyl-1H-imidazol-2-yl)-6-(1-methyl-1H-pyrazol-3-yl)pyrrolo[2,1-f][1,2,4]triazin-4-amine]",50 to 84,–,–,–,–,50 to 75,C (C = 50-75% inhibition),C (C = 50-75% inhibition),B (B = 26-49% inhibition),C (C = 50-75% inhibition)
"Cc1c(-c2ccn(C)n2)cn2nc(-c3nccn3C)nc(Nc3ccc(-n4ccnc4)cn3)c12 [Compound 242, N-(5-(1H-Imidazol-1-yl)pyridin-2-yl)-5-methyl-2-(1-methyl-1H-imidazol-2-yl)-6-(1-methyl-1H-pyrazol-3-yl)pyrrolo[2,1-f][1,2,4]triazin-4-amine]",25 to 49,–,–,–,–,1 to 25,A (A = 1-25% inhibition),B (B = 26-49% inhibition),0 (0 = 0% inhibition),A (A = 1-25% inhibition)
"COCCNC(=O)c1c(-c2ccn(C)n2)cn2nc(-c3nccn3C)nc(N[C@H]3CC[C@H](OC)C3)c12 (racemic) [Compound 183, rac 4-(((1S,3S)-3-Methoxycyclo-pentyl)amino)-N-(2-methoxyethyl)-2-(1-methyl-1H-imidazol-2-yl)-6-(1-methyl-1H-pyrazol-3-yl)pyrrolo[2,1-f][1,2,4]triazine-5-carboxamide]",25 to 49,A (A = 1-25% inhibition),A (A = 1-25% inhibition),A (A = 1-25% inhibition),0 (0 = 0% inhibition),1 to 25,–,–,–,–
"CO[C@H]1C[C@H](Nc2nc(-c3nccn3C)nn3cc(-c4cccnc4)c(-c4cccnc4)c23)C1 [Compound 171, N-((1r,3r)-3-Methoxycyclobutyl)-2-(1-methyl-1H-imidazol-2-yl)-5,6-di(pyridin-3-yl)pyrrolo[2,1-f][1,2,4]triazin-4-amine]",0,A (A = 1-25% inhibition),A (A = 1-25% inhibition),B (B = 26-49% inhibition),A (A = 1-25% inhibition),1 to 25,–,–,–,–
"COc1ccnc(Nc2nc(-c3nccn3C)nn3cc(-c4ccn(C)n4)c(C(=O)NCCN(C)C)c23)c1 [Compound 177, N-(2-(Dimethylamino)ethyl)-4-((4-methoxypyridin-2-yl)amino)-2-(1-methyl-1H-imidazol-2-yl)-6-(1-methyl-1H-pyrazol-3-yl)pyrrolo[2,1-f][1,2,4]triazine-5-carboxamide]",75 to 100,D (D = 76-100% inhibition),C (C = 50-75% inhibition),D (D = 76-100% inhibition),D (D = 76-100% inhibition),76 to 100,–,–,–,–
"COCCCNC(=O)c1c(-c2ccn(C)n2)cn2nc(-c3nccn3C)nc(N[C@H]3CC[C@H](OC)C3)c12 (racemic) [Compound 184, rac 4-(((1S,3S)-3-methoxycyclo-pentyl)amino)-N-(3-methoxypropyl)-2-(1-methyl-1H-imidazol-2-yl)-6-(1-methyl-1H-pyrazol-3-yl)pyrrolo[2,1-f][1,2,4]triazine-5-carboxamide]",25 to 49,0 (0 = 0% inhibition),B (B = 26-49% inhibition),A (A = 1-25% inhibition),A (A = 1-25% inhibition),1 to 25,–,–,–,–
"COc1ccnc(Nc2nc(-c3nccn3CCNC(=O)CCCC[C@H]3SC[C@H]4NC(=O)N[C@H]43)nn3cc(-c4ccn(C)n4)c(C)c23)c1 [Compound 216, N-(2-(2-(4-((4-methoxypyridin-2-yl)amino)-5-methyl-6-(1-methyl-1H-pyrazol-3-yl)pyrrolo[2,1-f][1,2,4]triazin-2-yl)-1H-imidazol-1-yl)ethyl)-5-((3aR,4R,6aS)-2-oxohexahydro-1H-thieno[3,4-d]imidazol-4-yl)pentanamide]",50 to 74,–,–,–,–,76 to 100,D (D = 76-100% inhibition),D (D = 76-100% inhibition),D (D = 76-100% inhibition),D (D = 76-100% inhibition)
"Cc1c(-c2ccn(C)n2)cn2nc(-c3nccn3C)nc(Nc3ccc(C(C)(C)O)cn3)c12 [Compound 241, 2-(6-((5-Methyl-2-(1-methyl-1H-imidazol-2-yl)-6-(1-methyl-1H-pyrazol-3-yl)pyrrolo[2,1-f][1,2,4]triazin-4-yl)amino)pyridin-3-yl)propan-2-ol]",25 to 49,–,–,–,–,76 to 100,D (D = 76-100% inhibition),D (D = 76-100% inhibition),D (D = 76-100% inhibition),D (D = 76-100% inhibition)
"Cc1c(-c2ccn(C)n2)cn2nc(-c3nccn3C)nc(Nc3ccc(OC(F)F)cn3)c12 [Compound 231, N-(5-(Difluorometh-oxy)pyridin-2-yl)-5-methyl-2-(1-methyl-1H-imidazol-2-yl)-6-(1-methyl-1H-pyrazol-3-yl)pyrrolo[2,1-f][1,2,4]triazin-4-amine]",1 to 24,–,–,–,–,76 to 100,C (C = 50-75% inhibition),C (C = 50-75% inhibition),B (B = 26-49% inhibition),B (B = 26-49% inhibition)
"CO[C@H]1CC[C@H](Nc2nc(-c3nccn3C)nn3cc(-c4ccn(C)n4)c(C(=O)NC4CC4)c23)C1 (racemic) [Compound 182, rac N-Cyclopropyl-4-(((1S,3S)-3-methoxycyclo-pentyl)amino)-2-(1-methyl-1H-imidazol-2-yl)-6-(1-methyl-1H-pyrazol-3-yl)pyrrolo[2,1-f][1,2,4]triazine-5-carboxamide]",25 to 49,0 (0 = 0% inhibition),A (A = 1-25% inhibition),A (A = 1-25% inhibition),A (A = 1-25% inhibition),1 to 25,–,–,–,–
